Consider eleven compounds from patent US9458101B2 (priority 2009, dated 2016).

The test system of data set [1] is HeLa (Human cervical carcinoma). Put plainly: Cytotoxicity testing (MTS) on HeLa. The class given is cell-based. As for the experimental part:
(§1) Cell lines used were A549 (Human lung carcinoma), HeLa (Human cervical carcinoma), MCF-7 (Human mammary gland adenocarcinoma), CEM (Human T-lymphoblastoid from ALL (Acute lymphoblastic leukemia)), M010B (Human glioma), M006X (Human glioma) and Jurkat (Human T-cell leukemia).
(§2) A series of dilutions were prepared and a wavelength scan of the diluted solution was used to determine the wavelength of maximum absorbance for each compound. Five standardized drug concentrations were scanned at this pre-determined wavelength to obtain an estimate of the compound's extinction coefficient.
(§3) A primary MTS assay was used to test the optimal number of cells for cytotoxicity assays. Cells were trypsinized, counted and introduced into seven lanes of a 96-well plate at different cell numbers (eight replicates per lane). Optimal cell numbers were determined after 72 and 96 hours of growth and were used in subsequent cytotoxicity assays. […] Cell viability was determined using the Cell Titer 96 AQueous One Solution Cell Proliferation Assay (Promega, U.S.A.).
(§4) Fits were performed using a dose-response model ideal for data showing an initial response plateau, a transition region, and a final response plateau.
(§5) [formula] […] Itop is the response obtained at very low/no drug concentration. The data and all parameters were normalized to Itop−Ibot, a measure of the maximum effect of the drug.

In data set [2] the test system is A549 (Human lung carcinoma). As to the kind of experiment: Cytotoxicity testing (MTS) on A549. The class given is cell-based. Here is the method:
as §1, §2, §3, §4, §5

The subject of a further data set is M010B (Human glioma). Put plainly: Cytotoxicity testing (MTS) on M010B. The class given is cell-based. Here is the method: as §1, §2, §3, §4, §5
Data set [3] deals with CEM (Human T-lymphoblastoid from ALL). As to the kind of experiment: Cytotoxicity testing (MTS) on CEM. Format: cell-based. Here is the method: as §1, §2, §3, §4, §5
Data set [4] relates to A549, HeLa, MCF-7 and CEM cell lines. As to the kind of experiment: Cytotoxicity, mean over A549, HeLa, MCF-7 and CEM cell lines. The settings on record: for IC50 [log10 M] (mean logIC50): mean over A549, HeLa, MCF-7 and CEM cell lines; for cytotoxicity compared with colchicine: cytotoxicity assays; for average IC50 values compared with colchicine: average values of Table 3.
Description: as §1, §3, §5
Cytotoxicity screening was performed on a number of cell lines based on the cancer of origin and differing morphologies.

Data set [5] has as its system MCF-7 (Human mammary gland adenocarcinoma). As to the kind of experiment: Cytotoxicity testing (MTS) on MCF-7. The class given is cell-based. Here is the method:
as §1, §2, §3, §4, §5

Another data set relates to M006X (Human glioma). Put plainly: Cytotoxicity testing (MTS) on M006X. Format: cell-based. As for the experimental part:
as §1, §2, §3, §4, §5

`COc1cc2c(c(OCc3cccc(Cl)c3)c1OC)-c1ccc(OC)c(=O)cc1[C@@H](NC(C)=O)CC2` [Compound 12, N-[(7S)-2,3,10-trimethoxy-9-oxo-1-((phenyl(3-chloro))methoxy)-5,6,7,9-tetrahydrobenzo[α]heptalen-7-yl]acetamide]: the “Fraction of cells that survive at the highest drug concentrations (Ibot)” value (“Fraction of cells that survive” for short) in data set [1] is listed as 0.040 ± 0.038; in data set [2] it was 0.245 ± 0.024; in the data set on M010B (Human glioma), 0.328 ± 0.022; in data set [3], −0.015 ± 0.021; in data set [5] it was 0.390 ± 0.025; in the data set on M006X (Human glioma), 0.051 ± 0.027. The logIC50 in data set [1] is listed as −6.43 ± 0.15 log10 M; in data set [2], −6.00 ± 0.04 log10 M; in the data set with M010B (Human glioma), −6.39 ± 0.11 log10 M; in data set [3], −6.46 ± 0.09 log10 M; in data set [5] it was −6.30 ± 0.12 log10 M; with M006X (Human glioma) it was −6.47 ± 0.12 log10 M. The “IC50 [log10 M] (mean logIC50)” value in data set [4] is listed as −6.30 ± 0.10 log10 M.

`C=CCOc1c(OC)c(OC)cc2c1-c1ccc(OC)c(=O)cc1[C@@H](NC(C)=O)CC2` [Compound 9]: the “Fraction of cells that survive” value is reported as 0.082 ± 0.018 in data set [1]; 0.227 ± 0.021 in data set [2]; 0.299 ± 0.017 in the data set with M010B (Human glioma); −0.004 ± 0.015 in data set [3]; 0.484 ± 0.009 in data set [5]; 0.037 ± 0.015 in the data set with M006X (Human glioma). The logIC50 was −7.35 ± 0.09 log10 M in data set [1]; −6.66 ± 0.10 log10 M in data set [2]; −6.74 ± 0.08 log10 M in the data set on M010B (Human glioma); −7.46 ± 0.08 log10 M in data set [3]; −7.10 ± 0.05 log10 M in data set [5]; −7.47 ± 0.09 log10 M in the data set with M006X (Human glioma). The “cytotoxicity compared with colchicine” value in data set [4] is on record as “moderately better than colchicine”. Moreover, the “IC50 [log10 M] (mean logIC50)” value in data set [4] is listed as −7.15 ± 0.08 log10 M.

Regarding `CCCOc1cc2c(c(OC)c1OC)-c1ccc(SC)c(=O)cc1[C@@H](NC(C)=O)CC2` [Compound 43, N-[(7S)-3-propoxy-1,2-dimethoxy-10-methylsulfanyl-9-oxo-5,6,7,9-tetrahydrobenzo[α]heptalen-7-yl]acetamide], the “Fraction of cells that survive” value in data set [1] stood at 0.025 ± 0.025; in data set [2] it was 0.198 ± 0.024; in the data set on M010B (Human glioma), 0.214 ± 0.022; in data set [3], 0.010 ± 0.014; in data set [5] it was 0.399 ± 0.015. The logIC50 is reported as −8.66 ± 0.12 log10 M in data set [1]; −8.76 ± 0.11 log10 M in data set [2]; −8.51 ± 0.15 log10 M in the data set on M010B (Human glioma); −8.55 ± 0.09 log10 M in data set [3]; −8.71 ± 0.10 log10 M in data set [5]. Also, the “average IC50 values compared with colchicine” value in data set [4] was “stronger than colchicine”. For the same compound, the “cytotoxicity compared with colchicine” value in data set [4] is given as “consistently the most effective”. For the same compound, in data set [4] (cytotoxicity experiments, most potent derivative), the IC50 (in general, the midpoint of a concentration-inhibition curve) was found to be 2.13 ± 0.77 nM. Besides, the “IC50 [log10 M] (mean logIC50)” value in data set [4] was −8.67 ± 0.11 log10 M.

Consider `C=CCOc1cc2c(c(OC)c1OC)-c1ccc(SC)c(=O)cc1[C@@H](NC(C)=O)CC2` [Compound 41, N-[(7S)-1,2-dimethoxy-10-methylsulfanyl-9-oxo-3-(prop(2-en)oxy)-5,6,7,9-tetrahydrobenzo[α]heptalen-7-yl]acetamide], for which the “Fraction of cells that survive” value in data set [1] is given as 0.039 ± 0.016; in data set [2] it was 0.243 ± 0.012; in data set [3], −0.050 ± 0.022; in data set [5], 0.472 ± 0.016. The logIC50 in data set [1] was −8.45 ± 0.11 log10 M; in data set [2], −8.50 ± 0.11 log10 M; in data set [3] it was −8.29 ± 0.10 log10 M; in data set [5] it was −8.31 ± 0.12 log10 M. Moreover, in data set [4], the “average IC50 values compared with colchicine” value is “stronger than colchicine”. In data set [4], the “IC50 [log10 M] (mean logIC50)” value is recorded as −8.39 ± 0.11 log10 M.

`COc1cc2c(c(OC)c1OC)-c1ccc(OC)c(=O)cc1[C@@H](NC(C)=O)CC2` [Colchicine, N-[(7S)-1,2,3,10-tetramethoxy-9-oxo-5,6,7,9-tetrahydrobenzo[α]heptalen-7-yl]acetamide, reference compound]: the “Fraction of cells that survive” value in data set [1] came out at 0.061 ± 0.048; in data set [2] it was 0.118 ± 0.042; with M010B (Human glioma), 0.107 ± 0.017; in data set [3], 0.016 ± 0.021; in data set [5], 0.377 ± 0.010; in the data set with M006X (Human glioma) it was 0.026 ± 0.005.

For `COc1cc2c(c(O)c1OC)-c1ccc(OC)c(=O)cc1[C@@H](NC(C)=O)CC2` [Compound 3, N-[(7S)-1-hydroxy-2,3,10-trimethoxy-9-oxo-5,6,7,9-tetrahydrobenzo[α]heptalen-7-yl]acetamide], the entries for the “Fraction of cells that survive” value in data set [2] and in data set [5] were 0.235 ± 0.048 and 0.518 ± 0.033, respectively. For the same compound, the logIC50 is −5.29 ± 0.11 log10 M in data set [2] and −5.25 ± 0.10 log10 M in data set [5].

For the compound `COc1c(O)cc2c(c1OC)-c1ccc(OC)c(=O)cc1[C@@H](NC(C)=O)CC2` [Compound 50], the “cytotoxicity compared with colchicine” value in data set [4] is “consistently the most effective”.

As to `COc1cc2c(c(OC(C)C)c1OC)-c1ccc(OC)c(=O)cc1[C@@H](NC(C)=O)CC2` [Compound 7, N-[(7S)-1-(ethoxy-1-methyl)-2,3,10-trimethoxy-9-oxo-5,6,7,9-tetrahydrobenzo[α]heptalen-7-yl]acetamide], in data set [1], the “Fraction of cells that survive” value was 0.066 ± 0.022 and the logIC50 is −8.25 ± 0.09 log10 M. For the same compound, in data set [2], the “Fraction of cells that survive” value amounted to 0.229 ± 0.014 and the logIC50 is given as −7.66 ± 0.08 log10 M. Besides, in data set [3], the “Fraction of cells that survive” value is reported as 0.000 ± 0.014 and the logIC50 is on record as −8.49 ± 0.10 log10 M. In addition, in data set [4], the “average IC50 values compared with colchicine” value was “stronger than colchicine”, the “cytotoxicity compared with colchicine” value is “moderately better than colchicine” and the “IC50 [log10 M] (mean logIC50)” value is −8.12 ± 0.08 log10 M. For the same compound, in data set [5], the “Fraction of cells that survive” value worked out at 0.464 ± 0.009 and the logIC50 is reported as −8.10 ± 0.05 log10 M.

With `COc1cc2c(c(OC(C)=O)c1OC)-c1ccc(OC)c(=O)cc1[C@@H](NC(C)=O)CC2` [Compound 2, N-[(7S)-2,3,10-trimethoxy-1-((methyl)carbonyloxy)-9-oxo-5,6,7,9-tetrahydrobenzo[α]heptalen-7-yl]acetamide], the “Fraction of cells that survive” value in data set [1] is on record as 0.074 ± 0.031; in data set [2], 0.283 ± 0.022; in data set [3] it was 0.027 ± 0.021; in data set [5] it was 0.424 ± 0.019. For the same compound, the logIC50 in data set [1] was −6.48 ± 0.13 log10 M; in data set [2], −5.89 ± 0.06 log10 M; in data set [3] it was −6.65 ± 0.08 log10 M; in data set [5], −6.32 ± 0.10 log10 M. Besides, the “IC50 [log10 M] (mean logIC50)” value in data set [4] is listed as −6.34 ± 0.09 log10 M.

Regarding `COc1c(O)cc2c(c1OC)-c1ccc(SC)c(=O)cc1[C@@H](NC(C)=O)CC2` [Compound 40, N-[(7S)-3-hydroxy-1,2-dimethoxy-3-hydroxy-10-methylsulfanyl-9-oxo-5,6,7,9-tetrahydrobenzo[α]heptalen-7-yl]acetamide], in data set [4], the “cytotoxicity compared with colchicine” value is “consistently the most effective”.

For `CCC(=O)Oc1c(OC)c(OC)cc2c1-c1ccc(OC)c(=O)cc1[C@@H](NC(C)=O)CC2` [Compound 4, N-[(7S)-1-((ethyl)carbonyloxy)-2,3,10-trimethoxy-9-oxo-5,6,7,9-tetrahydrobenzo[α]heptalen-7-yl]cetamide], the “Fraction of cells that survive” value is recorded as 0.058 ± 0.048 in data set [1], 0.332 ± 0.028 in data set [2], −0.031 ± 0.049 in data set [3] and 0.399 ± 0.021 in data set [5]. In addition, the logIC50 is −5.41 ± 0.13 log10 M in data set [1], −5.07 ± 0.04 log10 M in data set [2], −5.39 ± 0.11 log10 M in data set [3] and −5.23 ± 0.07 log10 M in data set [5]. Besides, in data set [4], the “IC50 [log10 M] (mean logIC50)” value was −5.27 ± 0.09 log10 M.
